Read-outs that look alike come from different tables or passages of the source.
Biological target: T1, OATP2 (Homo sapiens, UniProt Q9Y6L6, N130D)
T1 sequence (Q9Y6L6 1-691 N130D): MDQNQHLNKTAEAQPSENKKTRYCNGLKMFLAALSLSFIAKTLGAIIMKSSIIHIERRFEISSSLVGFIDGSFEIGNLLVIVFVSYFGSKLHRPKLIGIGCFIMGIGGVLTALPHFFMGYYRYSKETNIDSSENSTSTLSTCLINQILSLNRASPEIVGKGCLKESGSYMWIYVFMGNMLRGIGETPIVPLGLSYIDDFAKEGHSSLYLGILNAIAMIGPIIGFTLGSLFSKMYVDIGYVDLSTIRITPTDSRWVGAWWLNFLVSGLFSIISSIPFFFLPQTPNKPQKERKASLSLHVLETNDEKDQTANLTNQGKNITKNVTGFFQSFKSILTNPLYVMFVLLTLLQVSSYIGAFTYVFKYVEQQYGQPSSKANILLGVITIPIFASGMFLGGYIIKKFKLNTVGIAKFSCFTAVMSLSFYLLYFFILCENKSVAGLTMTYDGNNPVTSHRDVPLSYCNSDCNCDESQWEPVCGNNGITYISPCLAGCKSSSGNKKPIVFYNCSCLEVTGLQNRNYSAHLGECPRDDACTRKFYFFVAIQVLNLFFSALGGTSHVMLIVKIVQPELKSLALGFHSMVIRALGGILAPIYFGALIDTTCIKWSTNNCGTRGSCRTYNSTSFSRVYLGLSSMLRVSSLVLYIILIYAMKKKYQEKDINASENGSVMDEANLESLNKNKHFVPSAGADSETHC
Conditions: 293EBNA (HEK293 derivative) cells transfected with pCEP-OATP2 or empty vector (MOCK), uptake for 5 minutes, absence and presence of excess unlabeled substrate, FIG. 2
Protocol: An assay for the measurement of OATP activity is performed as follows: HEK293 cells are plated in Dulbeccos Modified Eagles Medium (DMEM) plus 10% fetal bovine serum plus penicillin and streptomycin, in poly-d-lysine coated dishes and co-transfected with OATP transporter expression plasmids using Lipofectamine Plus (Life Technologies, Inc.). The cells and media are assayed for substrate transport 24 hours later. Alternatively, cell lines engineered to stably express OATPs could be plated and assayed directly without transfection. To measure transport, media is removed and monolayers are assayed in triplicate by washing once in serum-free DMEM and adding the same medium containing [^3H]-substrate alone or in the presence of various concentrations of unlabeled test compounds. […] The transport activity is expressed as moles of substrate transported into cells/mg of cell protein/minute. […]
293EBNA cells (Invitrogen, Inc.), an HEK293 cell derivative, were transiently transfected with the OATP2 expression vector pCEP-OATP2, or the pCEP4 vector alone (MOCK) and the transport of [^3H]-labeled substrates was determined 24 hours later. […] The uptake of radiolabeled substrate for 5 minutes into cells transfected with pCEP-OATP2 or empty vector (MOCK) was determined in the absence (solid bars) and presence (open bars) of excess unlabeled substrate.

NC(Cc1cc(I)c(Oc2cc(I)c(O)c(I)c2)c(I)c1)C(=O)O (centres unmarked) [thyroid hormone (T4)]
transport (specific uptake of radiolabeled substrate) by OATP2: specific uptake
transport (specific uptake of radiolabeled substrate) by OATP2 (listed as thyroid hormone (T)): transports
